The results in this text go back to patent US5891882A, “Benzopyranopyrrole and benzopyranopyridine α-1 adenergic compounds” (priority 1997, dated 1999).

For assay [1], the target named is T1, α-1A adrenoreceptor (canine prostate smooth muscle) (Canis lupus, UniProt A0A8I3NK63).
T1 construct: antagonism of phenylephrine-induced contraction (pA2, Schild)
T1 sequence (A0A8I3NK63 1-466): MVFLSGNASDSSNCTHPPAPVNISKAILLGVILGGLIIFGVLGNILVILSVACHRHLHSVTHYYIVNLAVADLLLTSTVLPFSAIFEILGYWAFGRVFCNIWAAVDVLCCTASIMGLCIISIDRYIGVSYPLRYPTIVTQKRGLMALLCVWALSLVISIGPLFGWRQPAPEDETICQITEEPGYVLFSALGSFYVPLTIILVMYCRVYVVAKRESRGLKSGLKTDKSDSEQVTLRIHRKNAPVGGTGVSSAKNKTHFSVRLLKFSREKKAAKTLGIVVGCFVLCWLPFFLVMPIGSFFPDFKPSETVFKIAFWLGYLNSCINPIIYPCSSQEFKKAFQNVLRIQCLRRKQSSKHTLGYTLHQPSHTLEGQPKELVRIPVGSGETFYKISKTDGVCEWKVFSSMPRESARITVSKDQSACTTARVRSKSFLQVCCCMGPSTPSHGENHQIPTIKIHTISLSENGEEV
In words: Functional antagonism: inhibition of phenylephrine-induced contraction of canine prostate strips. Format: cell-based. As to conditions: Schild plot. An excerpt: Canine prostate strips were used in vitro as previously described (Hieble, J. P., Boyce, Caine, M., Fed Proc., 45: 2609-2614 (1986)), to determine antagonist potencies phenylephrine-induced contractions.
(§1) Functional assays indicative of pharmacologically defined α-1 adrenoreceptors were used to further characterize compounds. Inhibition of phenylephrine (PE)-induced contraction of canine prostate smooth muscle can be correlated with α-1A adrenoreceptor activation. […] For each of these models, agonist dose response curves were repeated against increasing concentrations of test agent to derive a Schild plot [log ([…]) against log (molarity of test agent)] to determine the pA2.
Canine prostate strips were used in vitro as previously described (Hieble, J. P., Boyce, A. J. and Caine, M., Fed. Proc., 45: 2609-2614 (1986)), to determine antagonist potencies against phenylephrine-induced contractions.

The target of assay [2] is T2, α-1 Adrenoceptors (Rat Aorta) (Rattus norvegicus, UniProt P23944).
T2 construct: Rat Aorta; from tissue; host or cells: rat aorta
T2 sequence (P23944 1-561): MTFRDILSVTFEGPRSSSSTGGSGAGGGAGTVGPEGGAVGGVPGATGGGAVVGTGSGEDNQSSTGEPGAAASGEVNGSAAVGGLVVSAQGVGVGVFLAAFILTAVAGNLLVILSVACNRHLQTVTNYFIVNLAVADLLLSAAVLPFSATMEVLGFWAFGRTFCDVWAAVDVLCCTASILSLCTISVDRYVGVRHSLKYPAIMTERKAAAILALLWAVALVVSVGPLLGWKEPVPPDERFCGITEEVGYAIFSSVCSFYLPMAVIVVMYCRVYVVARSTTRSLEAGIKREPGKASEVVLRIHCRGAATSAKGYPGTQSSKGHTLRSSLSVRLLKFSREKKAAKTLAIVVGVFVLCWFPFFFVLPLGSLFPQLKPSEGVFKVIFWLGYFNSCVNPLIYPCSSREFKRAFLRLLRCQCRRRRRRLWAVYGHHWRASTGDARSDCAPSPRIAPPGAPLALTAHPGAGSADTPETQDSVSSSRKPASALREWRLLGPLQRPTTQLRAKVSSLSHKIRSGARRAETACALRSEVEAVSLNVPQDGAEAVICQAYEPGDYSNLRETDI
As to the kind of experiment: Functional antagonism at α-1 adrenoceptors, rat aorta. The class given is cell-based. The settings on record: read-out: In Vitro Characterization (pA2) Rat Aorta (converted).
From the text: as §1

Where a name gives a salt, the structure may show the parent alone.

On to `COc1cccc2c1[C@@H]1CCN(CCCCn3c(=O)[nH]c4c(sc5ncc(Cl)nc54)c3=O)C[C@H]1CO2` [Example 97, 3-[4-((4aS,10bR)-trans-10-Methoxy-1,3,4,4a,5,10b-hexahydro-2H-[1]-benzopyrano[3,4-c]pyrido-3-yl)butyl]-8-chloro-pyrazino[2',3':4,5]thieno[3,2-d]pyrimidine-2,4(1H,3H)-dione dihydrochloride], for which, in assay [1], the “In Vitro Characterization (pA2) Dog Prostate” value (“In Vitro Characterization” for short) is listed as 8.6.

As for `COc1ccc2c(c1)OC[C@H]1CN(CCn3c(=O)[nH]c4c(sc5ccccc54)c3=O)C[C@@H]21.Cl` (racemic) [Example 63, 3-[2-((±)-cis-7-Methoxy-1,2,3,3a,4,9b-hexahydro-[1]-benzopyrano[3,4-c]pyrrol-2-yl)ethyl]-[1]benzthieno[3,2-d]pyrimidine-2,4(1H,3H)-dione hydrochloride], the “In Vitro Characterization” value in assay [1] was 6.65.

For the compound `COc1cccc2c1[C@@H]1CN(CCCCn3c(=O)[nH]c4c(sc5c(OC)ccnc54)c3=O)C[C@@H]1CO2` [Example 18, 3-[4-((3aR,9bR)-cis-9-Methoxy-1,2,3,3a,4,9b-hexahydro-[1]-benzopyrano[3.4-c]pyrrol-2-yl)butyl]-6-methoxy-pyrido[2',3':4,51thieno[3,2-d]pyrimidine-2,4(1H,3H)-dione dihydrochloride], the Kb in assay [2] was 0.457 nM.

In the case of `COc1cccc2c1[C@@H]1CN(CCCCn3c(=O)[nH]c4c(sc5nccc(OC)c54)c3=O)C[C@@H]1CO2` [Example 36, 3-[4-((3aR,9bR)-cis-9-Methoxy-1,2,3,3a,4,9b-hexahydro-[1]-benzopyrano[3,4-c]pyrrol-2-yl)butyl]-9-methoxy-pyrido[2',3':4,5]thieno[3,2-d]pyrimidine-2,4(1H,3H)-dione hydrochloride], the Kb in assay [2] was 0.372 nM.

Regarding `COc1cccc2c1[C@@H]1CN(CCCCn3c(=O)[nH]c4c(sc5nc(-c6ccccc6)cnc54)c3=O)C[C@@H]1CO2` [Example 40, 3-[4-((3aR,9bR)-cis-9-Methoxy-1,2,3,3a,4,9b-hexahydro-[1]-benzopyrano[3,4-c]pyrrol-2-yl)butyl]-7-phenyl-pyrazino[2',3':4,5]thieno[3,2-d]pyrimidine-2,4(1H,3H)-dione hydrochloride], the Kb in assay [2] is 4.47 nM.

For `COc1cccc2c1[C@@H]1CN(CCn3c(=O)[nH]c4c(sc5ccccc54)c3=O)C[C@@H]1CO2.Cl` (racemic) [Example 65, 3-[2-((±)-cis-9-Methoxy-1,2,3,3a,4,9b-hexahydro-[1]-benzopyrano[3,4-c]pyrrol-2-yl)ethyl]-[1]-benzthieno[3,2-d]pyrimidine-2,4(1H,3H)-dione hydrochloride], in assay [1], the “In Vitro Characterization” value is on record as 7.76.

Take `COc1cccc2c1[C@@H]1CN(CCCCn3c(=O)[nH]c4c(sc5ccc(Cl)nc54)c3=O)C[C@H]1CO2` [Example 25, 3-[4-((3aS,9bR)-trans-9-Methoxy-1,2,3,3a,4,9b-hexahydro-[1]-benzopyrano[3,4-c]pyrrol-2-yl)butyl]-8-chloro-pyrido[2',3':4,5]thieno[3,2-d]pyrimidine-2,4(1H,3H)-dione dihydrochloride]: in assay [2], the Kb was 0.0138 nM.

Take `COc1cccc2c1[C@@H]1CN(CCCCn3c(=O)[nH]c4c(sc5ccc(OC(C)C)nc54)c3=O)C[C@H]1CO2` [Example 51, 3-[4-((3aS,9bR)-trans-9-Methoxy-1,2,3,3a,4,9b-hexahydro-[1]-benzopyrano[3,4-c]pyrrol-2-yl)butyl]-8-isopropoxy-pyrido[2',3':4,5]thieno[3,2-d]pyrimidine-2,4(1H,3H)-dione hydrochloride]: the Kb in assay [2] was 0.182 nM.

For `COc1cccc2c1[C@@H]1CCN(CCCCn3c(=O)[nH]c4c(sc5cccnc54)c3=O)C[C@H]1CO2` [Example 95, 3-[4-((4aS,10bR)-trans-10-Methoxy-1,3,4,4a,5,10b-hexahydro-2H-[1]-benzopyrano[3,4-c]pyrido-3-yl)butyl]-pyrido[2',3':4,5]thieno[3,2-d]pyrimidine-2,4(1H,3H)-dione dihydrochloride], in assay [1], the “In Vitro Characterization” value came to 8.58.

Take `COc1cccc2c1[C@H]1CN(CCCCn3c(=O)[nH]c4c(sc5nccnc54)c3=O)C[C@@H]1CO2.Cl.Cl` (racemic) [Example 74, 3-[4-((±)-trans-9-Methoxy-1,2,3,3a,4,9b-hexahydro-[1]-benzopyrano[3,4-c]pyrrol-2-yl)butyl]-pyrazino[2',3':4,5]thieno[3,2-d]pyrimidine-2,4(1H,3H)-dione dihydrochloride]: in assay [1], the “In Vitro Characterization” value worked out at 9.03.

As for `COc1ccc2c(c1)OC[C@H]1CN(CCCn3c(=O)[nH]c4c(sc5ccccc54)c3=O)C[C@@H]21.Cl` (racemic) [Example 64], in assay [1], the “In Vitro Characterization” value worked out at 6.92.

With `COc1cccc2c1[C@@H]1CN(CCCCn3c(=O)[nH]c4c(sc5cnccc54)c3=O)C[C@@H]1CO2` [Example 29, 3-[4-((3aR,9bR)-cis-9-Methoxy-1,2,3,3a,4,9b-hexahydro-[1]-benzopyrano[3,4-c]pyrrol-2-yl)butyl]-pyrido[4',3':4,5]thieno[3,2-d]pyrimidine-2,4(1H,3H)-dione hydrochloride], the Kb in assay [2] is 0.501 nM.

Turning to `COc1cccc2c1[C@@H]1CN(CCCn3c(=O)[nH]c4c(sc5ccccc54)c3=O)C[C@@H]1CO2.Cl` (racemic) [Example 66, 3-[3-((±)-cis-9-Methoxy-1,2,3,3a,4,9b-hexahydro-[1]-benzopyrano[3,4-c]pyrrol-2-yl)propyl]-[1]-benzthieno[3,2-d]pyrimidine-2,4(1H,3H)-dione hydrochloride], the “In Vitro Characterization” value in assay [1] is given as 7.48.

In the case of `COc1cccc2c1OC[C@H]1CN(CCCn3c(=O)[nH]c4c(sc5ccccc54)c3=O)C[C@@H]21.Cl` (racemic) [Example 68, 3-[3-((±)-cis-6-Methoxy-1,2,3,3a,4,9b-hexahydro-[1]-benzopyrano[3,4-c]pyrrol-2-yl)propyl]-[1]-benzthieno[3,2-d]pyrimidine-2,4(1H,3H)-dione hydrochloride], in assay [1], the “In Vitro Characterization” value is 7.02.

For `COc1cccc2c1[C@H]1CN(CCCCn3c(=O)[nH]c4c(sc5cccnc54)c3=O)C[C@H]1CO2` [Example 2, 3-[4-((3aS,9bS)-cis-9-Methoxy-1,2,3,3a,4,9b-hexahydro-[1]-benzopyrano[3,4-c]pyrrol-2-yl)butyl]-pyrido[2',3':4,5]thieno[3,2-d]pyrimidine-2,4(1H,3H)-dione hydrochloride], the “In Vitro Characterization” value in assay [1] came out at 7.95.

For `COc1cccc2c1[C@@H]1CN(CCCCn3c(=O)[nH]c4c(sc5ccc(Cl)nc54)c3=O)C[C@@H]1CO2` [Example 37, 3-[4((3aR,9bR)-cis-9-Methoxy-1,2,3,3a,4,9b-hexahydro-[1]-benzopyrano[3,4-c]pyrrol-2-yl)butyl]-8-chloro-pyrido[2',3':4,5]thieno[3,2-d]pyrimidine-2,4(1H,3H)-dione hydrochloride], the Kb in assay [2] is 0.229 nM.

For the compound `COc1cccc2c1[C@@H]1CN(CCCCn3c(=O)[nH]c4c(sc5nc(C)ccc54)c3=O)C[C@@H]1CO2` [Example 35, hydrochloride], in assay [2], the Kb was 0.741 nM.

Turning to `COc1cccc2c1[C@@H]1CN(CCCCn3c(=O)[nH]c4c(sc5cc(Cl)cnc54)c3=O)C[C@@H]1CO2` [Example 38, 3-[4((3aR,9bR)-cis-9-Methoxy-1,2,3,3a,4,9b-hexahydro-[1]-benzopyrano[3,4-c]pyrrol-2-yl)butyl]-7-chloro-pyrido[2',3':4,5]thieno[3,2-d]pyrimidine-2,4(1H,3H)-dione hydrochloride], in assay [2], the Kb is 1.15 nM.

As to `COc1cnc2sc3c(=O)n(CCCCN4C[C@@H]5COc6cccc(OC)c6[C@@H]5C4)c(=O)[nH]c3c2n1` [Example 31, hydrochloride], in assay [2], the Kb is 0.794 nM.

For `COc1cccc2c1[C@@H]1CN(CCCCn3c(=O)[nH]c4c(sc5c(OC)ccnc54)c3=O)C[C@H]1CO2` [Example 17, 3-[4-((3aS,9bR)-trans-9-Methoxy-1,2,3,3a,4,9b-hexahydro-[1]-benzopyrano[3,4-c]pyrrol-2-yl)butyl]-6-methoxy-pyrido[2',3':4,51thieno[3,2-d]pyrimidine-2,4(1H,3H)-dione dihydrochloride], the Kb in assay [2] is 0.631 nM.
